{"source": "patent US9050354B2", "about": "“Therapeutic antisense oligonucleotide compositions for the treatment of inflammatory bowel disease” (Atlantic Pharmaceuticals (Holdings) Limited, priority 2004, dated 2015)", "key": {"[1]": {"tested_on": "mild to moderate active left sided ulcerative colitis", "assay": "Open label study CS-28: pharmacological activity of ISIS 2302 enema", "assay_type": "in vivo, human", "details": "240 mg enema nightly for six weeks", "description": "All patients entering the study had moderate to severe mucosal disease at baseline (modified Mayo score, endoscopic appearance component of DAI, of 2 or greater at baseline). […] This was substantially higher than expected."}, "[2]": {"details": "in vivo", "quoted_text": "A population of 15 patients with mild to moderate active left sided ulcerative colitis (DIA 3-10) with mucosal friability were studied.\nPatients were given 240 mg of ISIS 2302 enema nightly for six weeks. Endoscopic mucosal biopsy samples were taken at baseline and at the end of therapy. Intensive 24-hour plasma pharmacokinetic (PK) sampling was conducted on all patients after the first and last enema dose for quantitative drug analysis. End of treatment colonic biopsy samples were collected for local quantitative PK evaluation from the descending colon.\nPK and clinical data from the first 12 patients were analyzed."}, "[3]": {"tested_on": "mild to moderate ulcerative colitis", "details": "240 mg/day rectally for 28 days; placebo 50%; cited from earlier work"}, "[4]": {"tested_on": "Crohn's disease", "details": "intravenous, cited from earlier work"}, "[5]": {"details": "human, in vivo, iv"}, "[6]": {"details": "human, in vivo, sc"}, "[7]": {"tested_on": "mild to moderate active distal ulcerative colitis"}, "[8]": {"tested_on": "chronic, unremitting pouchitis", "details": "HPMC enema 240 mg nightly for 6 weeks, twelve patients (p=0.001); cited from earlier work"}, "[9]": {"tested_on": "moderate to severe ulcerative colitis", "assay": "Subset analysis of patients with moderate to severe disease", "assay_type": "in vivo, human", "details": "moderate to severe subset (n=26)", "procedure": "An analysis of a subset of the population (n=26) of the study with moderate to severe disease was performed. Moderate to severe disease was defined as patients having the following scores using the DAI criteria: baseline stool frequency ≧2, rectal bleeding ≧2, endoscopy ≧2, and investigator's assessment ≧1."}, "[10]": {"details": "enema, 10 to 12 hours post-administration; about two thirds N-acetyl metabolite; cited from earlier work"}}, "note": "Oligonucleotides are written 5' to 3', each unit as a sugar letter and its base; * is a phosphorothioate linkage, no mark a phosphodiester; rarer units and linkages stand in square brackets, end groups in braces. Plain capitals give the bases only. d = 2'-deoxy (DNA)", "data": [{"compound": "ISIS 2302: 20-base phosphorothioate oligodeoxynucleotide 5′-GCCCAAGCTGGCATCCGTCA-3′ hybridizing to the 3′-untranslated region of human ICAM-1 mRNA (antisense dG*dC*dC*dC*dA*dA*dG*dC*dT*dG*dG*dC*dA*dT*dC*dC*dG*dT*dC*dA)", "values": [{"measurement": "patients with DAI significantly improved from baseline to week 6", "setting": "[1]", "value": "9 of 12"}, {"measurement": "patients with mucosal healing and resolution of friability (modified Mayo score of 0 or 1)", "setting": "[1]; at completion of the study", "value": "Seven of 12"}, {"measurement": "Maximum plasma concentrations (Cmax)", "setting": "[2]; human, 240 mg", "value": "2.2 to 38", "unit": "ng/mL"}, {"measurement": "Mean AUC", "setting": "[2]; human, 240 mg", "value": 0.124, "unit": "µg·h/mL"}, {"measurement": "systemically available share of the administered dose", "setting": "[2]", "value": "less than 1%"}, {"measurement": "patients requiring additional surgical or medical intervention over baseline during six months", "setting": "[3]", "value": "None"}, {"measurement": "efficacy in Phase II studies", "setting": "[4]; some subsets of patients", "value": "suggested efficacy"}, {"measurement": "efficacy on clinical remission and disease activity index scores", "setting": "[4]; two Phase III trials, moderate to severe Crohn's disease", "value": "ineffective"}, {"measurement": "n-1, n-2 and n-3 metabolites as share of total oligonucleotide in plasma", "setting": "[5]", "value": 20, "unit": "%"}, {"measurement": "plasma bioavailability", "setting": "[6]", "value": "about 50%"}, {"measurement": "subjects remaining in remission at week 30 of those in remission after 6 weeks", "setting": "[7]; 240 mg group, placebo 4 of 9 (p=0.12)", "value": "10 of 13"}, {"measurement": "median duration of response", "setting": "[7]; 240 mg group, placebo <3 months", "value": "≥ 6", "unit": "months"}, {"measurement": "response rate vs placebo", "setting": "[7]; 240 mg nightly, weeks 18 and 30 (p=0.04 and 0.03)", "value": "significantly better response rate than placebo"}, {"measurement": "stool frequency and rectal bleeding (components of DAI)", "setting": "[7]; ISIS 2302 enema treatment", "value": "durable reduction"}, {"measurement": "response vs placebo", "setting": "[7]; the 3 lower dose groups", "value": "failed to demonstrate statistical improvement over placebo"}, {"measurement": "primary endpoint of reduction of PDAI at week 6", "setting": "[8]", "value": "reached"}, {"measurement": "change in DAI vs baseline and placebo", "setting": "[9]; every other night dosing, through week 6", "value": "significant (p≦0.05) decrease in DAI"}, {"measurement": "change in DAI vs baseline and placebo", "setting": "[9]; nightly dosing, through week 18", "value": "significant (p≦0.05) decrease in DAI"}]}, {"compound": "Nc1ccc(O)c(C(=O)O)c1", "note": "[mesalamine]", "values": [{"measurement": "plasma levels", "setting": "[10]", "value": 2000, "unit": "ng/mL"}]}]}
